Laboratory results as given in US20230398130A1, “METHODS AND COMPOSITIONS FOR DIFFERENTIATING STEM CELLS” (Massachusetts Institute of Technology, priority 2020, published 2023).

Key:
ISC-enriched organoids [1] = experiment: Primary screen, 384-well 2.5-D organoid differentiation (ENR+CD, 6 days, Target Selective Inhibitor Library, vs whole-plate median): ATP (CellTiter-Glo 3D, CTG); conditions: for Z.CTG (standard z score) / Dose.FC.CTG (log 2 fold change) / Dose.FC.CTG / Z.CTG: primary screen; for Dose.FC.CTG (log 2 fold change): vs plate median; for Dose.FC.CTG: FC vs plate median
ISC-enriched organoids [2] = experiment: Primary screen, 384-well 2.5-D organoid differentiation (ENR+CD, 6 days): basal lysozyme secretion (LYZ.NS); format: cell-based, murine; conditions: for Z.LYZ.NS (standard z score) / Dose.FC.LYZ.NS (log 2 fold change) / Dose.FC.LYZ.NS / Z.LYZ.NS: primary screen; for Dose.FC.LYZ.NS (log 2 fold change): vs plate median; for Dose.FC.LYZ.NS: FC vs plate median
Excerpt: (§1) High-throughput screening.

ISC-enriched organoids [3] = experiment: Primary screen, 384-well 2.5-D organoid differentiation (ENR+CD, 6 days): carbachol-induced lysozyme secretion (LYZ.S); format: cell-based, murine; conditions: for Dose.FC.LYZ.S (log 2 fold change) / Dose.FC.LYZ.S: primary screen; for Dose.FC.LYZ.S (log 2 fold change): vs plate median; for Dose.FC.LYZ.S: FC vs plate median
Excerpt: as §1

[4] = Dose 10.00 uM, standard z score
[5] = dose 0.08 uM (1st of 4 lines per treatment; dose not printed in this part)
[6] = dose 0.40 uM (2nd of 4 lines per treatment; dose not printed in this part)
[7] = dose 0.08 uM, standard z score of FC
[8] = dose 0.40 uM, standard z score of FC
[9] = dose 2.00 uM, standard z score of FC
[10] = dose 10.00 uM, standard z score of FC

## O=C(Nc1ccccc1Br)N[C@@H]1CCN(c2ccc(C(F)(F)F)cn2)C1 [SB705498]
ISC-enriched organoids [1]; Dose 0.08 uM
  Z.CTG (standard z score): 0.318
  Dose.FC.CTG (log 2 fold change): 0.133
ISC-enriched organoids [1]; Dose 0.40 uM
  Z.CTG (standard z score): −0.102
  Dose.FC.CTG (log 2 fold change): −0.043
ISC-enriched organoids [1]; Dose 2.00 uM
  Z.CTG (standard z score): −0.009
  Dose.FC.CTG (log 2 fold change): −0.004
ISC-enriched organoids [1]; Dose 10.00 uM
  Z.CTG (standard z score): −0.089
  Dose.FC.CTG (log 2 fold change): −0.037
ISC-enriched organoids [2]; Dose 0.08 uM
  Z.LYZ.NS (standard z score): 0.642
  Dose.FC.LYZ.NS (log 2 fold change): 0.074
ISC-enriched organoids [2]; Dose 0.40 uM
  Z.LYZ.NS (standard z score): −0.433
  Dose.FC.LYZ.NS (log 2 fold change): −0.050
ISC-enriched organoids [2]; Dose 2.00 uM
  Z.LYZ.NS (standard z score): −0.008
  Dose.FC.LYZ.NS (log 2 fold change): −0.001
ISC-enriched organoids [2]; Dose 10.00 uM
  Z.LYZ.NS (standard z score): −0.154
  Dose.FC.LYZ.NS (log 2 fold change): −0.018
ISC-enriched organoids [3]; Dose 0.08 uM
  Dose.FC.LYZ.S (log 2 fold change): 0.094
ISC-enriched organoids [3]; Dose 0.40 uM
  Dose.FC.LYZ.S (log 2 fold change): 0.023
ISC-enriched organoids [3]; Dose 2.00 uM
  Dose.FC.LYZ.S (log 2 fold change): −0.030
ISC-enriched organoids [3]; Dose 10.00 uM
  Dose.FC.LYZ.S (log 2 fold change): −0.023

## C[C@@H](Oc1cc(-n2cnc3ccc(CN4CCN(C)CC4)cc32)sc1C(N)=O)c1ccccc1C(F)(F)F [GSK461364]
ISC-enriched organoids [1]; Dose 0.08 uM
  Dose.FC.CTG: 0.160 log 2 fold change
ISC-enriched organoids [1]; Dose 0.08 uM, standard z score
  Z.CTG: 0.383
ISC-enriched organoids [1]; Dose 0.40 uM
  Dose.FC.CTG: −0.154 log 2 fold change
ISC-enriched organoids [1]; Dose 0.40 uM, standard z score
  Z.CTG: −0.368
ISC-enriched organoids [1]; Dose 2.00 uM
  Dose.FC.CTG: −0.628 log 2 fold change
ISC-enriched organoids [1]; Dose 2.00 uM, standard z score
  Z.CTG: −1.500
ISC-enriched organoids [1]; Dose 10.00 uM
  Dose.FC.CTG: −0.621 log 2 fold change
ISC-enriched organoids [1]; [4]
  Z.CTG: −1.484
ISC-enriched organoids [2]; Dose 0.08 uM
  Dose.FC.LYZ.NS: 0.078 log 2 fold change
ISC-enriched organoids [2]; Dose 0.08 uM, standard z score
  Z.LYZ.NS: 0.682
ISC-enriched organoids [2]; Dose 0.40 uM
  Dose.FC.LYZ.NS: −0.096 log 2 fold change
ISC-enriched organoids [2]; Dose 0.40 uM, standard z score
  Z.LYZ.NS: −0.834
ISC-enriched organoids [2]; Dose 2.00 uM
  Dose.FC.LYZ.NS: −0.246 log 2 fold change
ISC-enriched organoids [2]; Dose 2.00 uM, standard z score
  Z.LYZ.NS: −2.138
ISC-enriched organoids [2]; Dose 10.00 uM
  Dose.FC.LYZ.NS: −0.287 log 2 fold change
ISC-enriched organoids [2]; [4]
  Z.LYZ.NS: −2.498
ISC-enriched organoids [3]; Dose 0.08 uM
  Dose.FC.LYZ.S: 0.112 log 2 fold change
ISC-enriched organoids [3]; Dose 0.40 uM
  Dose.FC.LYZ.S: −0.093 log 2 fold change
ISC-enriched organoids [3]; Dose 2.00 uM
  Dose.FC.LYZ.S: −0.352 log 2 fold change
ISC-enriched organoids [3]; Dose 10.00 uM
  Dose.FC.LYZ.S: −0.390 log 2 fold change

## CC1(C)CCC(c2ccc(Cl)cc2)=C(CN2CCN(c3ccc(C(=O)NS(=O)(=O)c4ccc(N[C@H](CCN5CCOCC5)CSc5ccccc5)c(S(=O)(=O)C(F)(F)F)c4)cc3)CC2)C1 [ABT-263 (Navitoclax)]
ISC-enriched organoids [1]; [5]
  SSMD.CTG_Rep (strictly standardized mean difference): −0.462
ISC-enriched organoids [1]; [6]
  SSMD.CTG_Rep (strictly standardized mean difference): −0.777
ISC-enriched organoids [1]; dose 0.08 uM, ENR+CD 6 days
  Dose.FC.CTG: −0.212 log 2 fold change
ISC-enriched organoids [1]; [7]
  Z.CTG: −0.507
ISC-enriched organoids [1]; dose 0.40 uM, ENR+CD 6 days
  Dose.FC.CTG: −0.264 log 2 fold change
ISC-enriched organoids [1]; [8]
  Z.CTG: −0.631
ISC-enriched organoids [1]; dose 2.00 uM, ENR+CD 6 days
  Dose.FC.CTG: −0.368 log 2 fold change
ISC-enriched organoids [1]; [9]
  Z.CTG: −0.878
ISC-enriched organoids [1]; dose 10.00 uM, ENR+CD 6 days
  Dose.FC.CTG: −0.962 log 2 fold change
ISC-enriched organoids [1]; [10]
  Z.CTG: −2.298
ISC-enriched organoids [2]; [5]
  SSMD.LYZ.NS_Rep (strictly standardized mean difference): 0.062
ISC-enriched organoids [2]; [6]
  SSMD.LYZ.NS_Rep (strictly standardized mean difference): 0.062
ISC-enriched organoids [2]; dose 0.08 uM, ENR+CD 6 days
  Dose.FC.LYZ.NS: 0.012 log 2 fold change
ISC-enriched organoids [2]; [7]
  Z.LYZ.NS: 0.104
ISC-enriched organoids [2]; dose 0.40 uM, ENR+CD 6 days
  Dose.FC.LYZ.NS: 0.007 log 2 fold change
ISC-enriched organoids [2]; [8]
  Z.LYZ.NS: 0.062
ISC-enriched organoids [2]; dose 2.00 uM, ENR+CD 6 days
  Dose.FC.LYZ.NS: −0.143 log 2 fold change
ISC-enriched organoids [2]; [9]
  Z.LYZ.NS: −1.248
ISC-enriched organoids [2]; dose 10.00 uM, ENR+CD 6 days
  Dose.FC.LYZ.NS: −0.259 log 2 fold change
ISC-enriched organoids [2]; [10]
  Z.LYZ.NS: −2.259
ISC-enriched organoids [3]; [5]
  SSMD.LYZ.S_Rep (strictly standardized mean difference): −0.041
  Z.LYZ.S (standard z score): −0.064
ISC-enriched organoids [3]; [6]
  SSMD.LYZ.S_Rep (strictly standardized mean difference): −0.134
  Z.LYZ.S (standard z score): −0.129
ISC-enriched organoids [3]; dose 0.08 uM, ENR+CD 6 days
  Dose.FC.LYZ.S: −0.010 log 2 fold change
ISC-enriched organoids [3]; dose 0.40 uM, ENR+CD 6 days
  Dose.FC.LYZ.S: −0.020 log 2 fold change
ISC-enriched organoids [3]; dose 2.00 uM, ENR+CD 6 days
  Dose.FC.LYZ.S: −0.205 log 2 fold change
ISC-enriched organoids [3]; dose 10.00 uM, ENR+CD 6 days
  Dose.FC.LYZ.S: −0.400 log 2 fold change
